According to US20090123507A1, “Metal Oxide Nanoparticles Coated With Specific N-Acylaminomethylene Phosphonates” (priority 2005, published 2009):

Legend:
S. aureus (ATCC 6538) = assay: European Standard Assay method EN 1040, antimicrobial bioassay; format: cell-based; details: logarithmic scale (5 = factor of 100000); for Bioassay data S. aureus 5 min: 5 min incubation; for Bioassay data S. aureus 30 min: 30 min incubation
Description: (§1) The titanium dioxide particles coated with the appropriate phosphonates were subsequently assayed according the European Standard Assay method EN 1040 against two representative microbes:
(§2) S. aureaus (ATCC 6538) and E. coli (ATCC 10536).
(§3) Both microbes were incubated with the coated nanoparticles together with their corresponding free phosphonates within the same apparent concentrations for 5 and 30 minutes, respectively.
(§4) The data are given in a logarithmic scale which means that the number 5 indicates an increase of activity by a factor of 100000.

E. coli (ATCC 10536) = assay: as above; format: cell-based; details: logarithmic scale (5 = factor of 100000); for Bioassay data E. coli 5 min: 5 min incubation; for Bioassay data E. coli 30 min: 30 min incubation
Description: as §1, §2, §3, §4

CCOP(=O)(CCC#N)OCC [Compound A]
<1: Bioassay data S. aureus 5 min (S. aureus (ATCC 6538)) | Bioassay data S. aureus 30 min (S. aureus (ATCC 6538)) | Bioassay data E. coli 5 min (E. coli (ATCC 10536)) | Bioassay data E. coli 30 min (E. coli (ATCC 10536))

CCCCCCCCCCCCCCCCCC(=O)NCCP(=O)(OCC)OCC [Compound J]
<1: Bioassay data S. aureus 5 min (S. aureus (ATCC 6538)) | Bioassay data S. aureus 30 min (S. aureus (ATCC 6538)) | Bioassay data E. coli 5 min (E. coli (ATCC 10536)) | Bioassay data E. coli 30 min (E. coli (ATCC 10536))

CCOP(=O)(CCNC(=O)CCC(=O)O)OCC [Compound M]
<1: Bioassay data S. aureus 5 min (S. aureus (ATCC 6538)) | Bioassay data S. aureus 30 min (S. aureus (ATCC 6538)) | Bioassay data E. coli 5 min (E. coli (ATCC 10536)) | Bioassay data E. coli 30 min (E. coli (ATCC 10536))

CCOP(=O)(CCCCNC(=O)OCc1ccccc1)OCC [Compound N]
<1: Bioassay data S. aureus 5 min (S. aureus (ATCC 6538)) | Bioassay data S. aureus 30 min (S. aureus (ATCC 6538)) | Bioassay data E. coli 5 min (E. coli (ATCC 10536)) | Bioassay data E. coli 30 min (E. coli (ATCC 10536))

CCCCCCCC/C=C/CCCCCCCC(=O)NCCP(=O)(OCC)OCC [Compound K]
<1: Bioassay data S. aureus 5 min (S. aureus (ATCC 6538)) | Bioassay data S. aureus 30 min (S. aureus (ATCC 6538)) | Bioassay data E. coli 5 min (E. coli (ATCC 10536)) | Bioassay data E. coli 30 min (E. coli (ATCC 10536))

CCOP(=O)(CCNC(=O)CCCCCN=[N+]=[N-])OCC [Compound L]
<1: Bioassay data S. aureus 5 min (S. aureus (ATCC 6538)) | Bioassay data S. aureus 30 min (S. aureus (ATCC 6538)) | Bioassay data E. coli 5 min (E. coli (ATCC 10536)) | Bioassay data E. coli 30 min (E. coli (ATCC 10536))
